Data on eight compounds can be found in patent US11104652B2, “Stereochemically enriched compositions for delivery of nucleic acids” (TRANSLATE BIO, INC., priority 2014, dated 2021).

Several values for one entry are separate records, joined by “and”; a condition that tells them apart may be missing. Equal values may be shown once.

One data set concerns CD-1 mice. As to the kind of experiment: Toxicity studies: expression levels of ALT and AST after ASS1 mRNA-loaded lipid nanoparticles. It counts as in vivo, mouse. As for the experimental part: (§1) All studies were performed using male CD-1 mice of approximately 6-8 weeks of age at the beginning of each experiment. Samples were introduced by a single bolus tail-vein injection of an equivalent total dose of 1.0 mg/kg (or otherwise specified) of encapsulated ASS1 mRNA. Mice were sacrificed and perfused with saline at the designated time points.
All animals were euthanized by CO2 asphyxiation at designated time points post dose administration (±5%) followed by thoracotomy and terminal cardiac blood collection. Whole blood (maximal obtainable volume) will be collected via cardiac puncture on euthanized animals into serum separator tubes, allowed to clot at room temperature for at least 30 minutes, centrifuged at 22° C.±5° C. at 9300 g for 10 minutes, and the serum will be extracted. For interim blood collections, approximately 40-50 μL of whole blood will be collected via facial vein puncture or tail snip. Samples collected from non treatment animals were used as a baseline ASS1 levels for comparison to study animals.
The chiral compounds of formula I generally yielded lower expression levels of ALT and/or AST, i.e., correlating to lower liver toxicity issues, compared to stereochemically non-enriched, or stereochemically less enriched, compositions of the same lipid.

The test system of data set [1] is human ASS1 protein production in wild type mouse liver. Kind of data set: In vivo human ASS1 protein production (ELISA) via hASS1 mRNA-loaded lipid nanoparticles. The following applies: Table 1, human ASS1 by ELISA, CD-1 mice, single bolus intravenous injection, 1.0 mg/kg encapsulated ASS1 mRNA, twenty-four hours post-injection. As for the experimental part:
as §1
The liver, spleen, kidney and heart of each mouse was harvested, apportioned into separate parts, and stored in either 10% neutral buffered formalin or snap-frozen and stored at −80° C. for analysis.
Human ASS1 ELISA: Standard ELISA procedures were followed employing mouse anti-ASS1 2D1-2E12 IgG as the capture antibody with rabbit anti-ASS1 #3285 IgG as the secondary (detection) antibody (Shire Human Genetic Therapies). Horseradish peroxidase (HRP)-conjugated goat anti-rabbit IgG was used for activation of the 3,3′,5,5′-tetramethylbenzidine (TMB) substrate solution. The reaction was quenched using 2N H2SO4 after 20 minutes. Detection was monitored via absorption (450 nm) on a Molecular Device SpectraMax instrument. Untreated mouse serum and organs and human ASS1 protein were used as negative and positive controls, respectively.
The production of human ASS1 protein via codon-optimized hASS1 mRNA-loaded lipid nanoparticles, comprising compounds of formula I, was tested in CD-1 mice as a single, bolus intravenous injection, as described above. FIG. 1 depicts the amount of human ASS1 protein detected via ELISA when treating mice human ASS1 mRNA-loaded lipid nanoparticles, with various racemic and chiral compounds of formula I, at 1.0 mg/kg doses. The mice were sacrificed twenty-four hours post-injection and organs, such as livers, were harvested.
Background: ELISA stands for enzyme-linked immunosorbent assay.

The mark [2] stands for this setting: Table 1, ASS1 mRNA-loaded lipid nanoparticles with the named cKK-E12 composition as cationic lipid, mice, intravenous.
Setting [3] is: Table 2, single intravenous dose, 24 hours post, formulation cKK-E12:DOPE:Chol:DMG-PEG2K, several lots per structure, in U/L.
The mark [4] stands for this setting: Table 2, single intravenous dose, 24 hours post, formulation cKK-E12:DOPE:Chol:DMG-PEG2K, several lots per structure, listed as S4-RS/SR, in U/L.

As to `CCCCCCCCCC[C@H](O)CN(CCCCC1NC(=O)C(CCCCN(C[C@@H](O)CCCCCCCCCC)C[C@@H](O)CCCCCCCCCC)NC1=O)C[C@@H](O)CCCCCCCCCC` (mixture of isomers) [S4 with Racemic Lysine Core], in the data set with CD-1 mice (setting [2]), the ALT was 170 ± 40 U/L and 155 ± 57 U/L; the AST is 132 ± 44 U/L and 157 ± 38 U/L. In data set [1] (1 mg/kg), the “ASS1 (ng/mg Total Protein)” value was 375 ± 244 ng/mg Total Protein and 674 ± 147 ng/mg Total Protein.
Regarding `CCCCCCCCCCC(O)CN(CCCC[C@@H]1NC(=O)[C@H](CCCCN(CC(O)CCCCCCCCCC)CC(O)CCCCCCCCCC)NC1=O)CC(O)CCCCCCCCCC` (mixture of isomers) [Racemic —OH with SS Lysine Core], in the data set on CD-1 mice (setting [2]), the ALT was 378 ± 58 U/L and 618 ± 503 U/L; the AST was 622 ± 76 U/L and 638 ± 273 U/L. Moreover, the “ASS1 (ng/mg Total Protein)” value in data set [1] (1 mg/kg) was 117 ± 80 ng/mg Total Protein and 209 ± 169 ng/mg Total Protein.
In the data set with CD-1 mice (setting [3]), `CCCCCCCCCC[C@H](O)CN(CCCC[C@H]1NC(=O)[C@@H](CCCCN(C[C@@H](O)CCCCCCCCCC)C[C@@H](O)CCCCCCCCCC)NC1=O)C[C@@H](O)CCCCCCCCCC` [S4-RR] gave an ALT of 152 ± 9 and an AST of 180 ± 42.
As for `CCCCCCCCCC[C@H](O)CN(CCCC[C@@H]1NC(=O)[C@H](CCCCN(C[C@@H](O)CCCCCCCCCC)C[C@@H](O)CCCCCCCCCC)NC1=O)C[C@@H](O)CCCCCCCCCC` [S4-S,S-cKKE12, (3S,6S)-3,6-bis(4-(bis((S)-2-hydroxydodecyl)amino)butyl)piperazine-2,5-dione], the ALT in the data set on CD-1 mice (setting [2]) is recorded as 226 ± 71 U/L; in the data set on CD-1 mice (setting [3]), 226 ± 71. For the same compound, the AST is 384 ± 233 U/L with CD-1 mice (setting [2]) and 384 ± 233 with CD-1 mice (setting [3]). In addition, the “ASS1 (ng/mg Total Protein)” value in data set [1] is listed as 1121 ± 468 ng/mg Total Protein.
As to `CCCCCCCCCC[C@H](O)CN(CCCC[C@@H]1NC(=O)[C@@H](CCCCN(C[C@@H](O)CCCCCCCCCC)C[C@@H](O)CCCCCCCCCC)NC1=O)C[C@@H](O)CCCCCCCCCC` [S4-S,R-cKKE12], the ALT in the data set on CD-1 mice (setting [2]) is 190 ± 75 U/L; in the data set on CD-1 mice (setting [4]) it was 143 ± 29 and 189 ± 47 and 190 ± 75. Moreover, the AST in the data set with CD-1 mice (setting [2]) is 193 ± 71 U/L; in the data set with CD-1 mice (setting [4]), 240 ± 98 and 203 ± 87 and 193 ± 71. The “ASS1 (ng/mg Total Protein)” value in data set [1] is recorded as 2303 ± 491 ng/mg Total Protein.
Turning to `CCCCCCCCCCC(O)CN(CCCC[C@@H]1NC(=O)[C@H](CCCCN(CC(O)CCCCCCCCCC)CC(O)CCCCCCCCCC)NC1=O)CC(O)CCCCCCCCCC` (stereo in doubt) [R4-S,S-cKKE12, (3S,6S)-3,6-bis(4-(bis((S)-2-hydroxydodecyl)amino)butyl)piperazine-2,5-dione], the results for the ALT in the data set on CD-1 mice (setting [2]) and in the data set on CD-1 mice (setting [3]) were 175 ± 102 U/L and 175 ± 102, respectively. Further, the figures for the AST in the data set with CD-1 mice (setting [2]) and in the data set on CD-1 mice (setting [3]) were 144 ± 35 U/L and 144 ± 35, respectively. Further, the “ASS1 (ng/mg Total Protein)” value in data set [1] came out at 449 ± 105 ng/mg Total Protein.
In the case of `CCCCCCCCCC[C@@H](O)CN(CCCC[C@H]1NC(=O)[C@@H](CCCCN(C[C@H](O)CCCCCCCCCC)C[C@H](O)CCCCCCCCCC)NC1=O)C[C@H](O)CCCCCCCCCC` [R4-RR], in the data set with CD-1 mice (setting [3]), the ALT is 136 ± 34 and the AST turned out to be 194 ± 80.
In the case of `CCCCCCCCCC[C@@H](O)CN(CCCCC1NC(=O)C(CCCCN(C[C@H](O)CCCCCCCCCC)C[C@H](O)CCCCCCCCCC)NC1=O)C[C@H](O)CCCCCCCCCC` (mixture of isomers) [R4 with Racemic Lysine Core], in the data set on CD-1 mice (setting [2]), the ALT is 188 ± 22 U/L and 236 ± 163 U/L; the AST is 265 ± 122 U/L and 237 ± 139 U/L. Also, the “ASS1 (ng/mg Total Protein)” value in data set [1] (1 mg/kg) was 823 ± 215 ng/mg Total Protein and 568 ± 248 ng/mg Total Protein.
